Assay results reported in patent publication US20260015358A1, “BICYCLIC DERIVATIVES, COMPOSITIONS AND USES THEREOF” (Danatlas Pharmaceuticals Co., Ltd., priority 2023, published 2026).

What was measured:
[1] = molecular target: T1, WRN [UniPro: Q14191 (WRN_HUMAN), N500-C946] (Homo sapiens (Human), UniProt Q14191); assay: WRN ATPase assay (ADP-Glo); assay type: biochemical; conditions: WRN enzymatic activity assay
[2] = molecular target: T1, WRN [UniPro: Q14191 (WRN_HUMAN), N500-C946]; assay: WRN unwinding assay (FORKF DNA, fluorescence); assay type: biochemical; conditions: Table 14

T1 sequence (Q14191 500-946): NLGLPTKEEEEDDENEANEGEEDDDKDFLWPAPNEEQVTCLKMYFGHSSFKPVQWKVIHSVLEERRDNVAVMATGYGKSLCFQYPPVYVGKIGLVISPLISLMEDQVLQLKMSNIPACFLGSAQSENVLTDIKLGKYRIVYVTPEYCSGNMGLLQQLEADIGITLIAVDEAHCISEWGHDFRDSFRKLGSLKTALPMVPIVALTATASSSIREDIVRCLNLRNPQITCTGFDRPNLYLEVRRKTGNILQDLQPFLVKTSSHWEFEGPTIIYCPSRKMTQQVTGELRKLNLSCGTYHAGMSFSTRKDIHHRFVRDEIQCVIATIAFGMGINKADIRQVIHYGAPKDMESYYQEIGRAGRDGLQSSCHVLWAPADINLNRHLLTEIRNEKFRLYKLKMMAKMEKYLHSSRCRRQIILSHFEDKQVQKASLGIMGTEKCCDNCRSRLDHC

SMILES | IC50 [1] | IC50 [2]
CCNC(=O)C(=O)N1CCN(c2c(CC)n(CC(=O)Nc3ccc(C(F)(F)F)cc3Cl)c3nc(C4=CCOCC4)nn3c2=O)CC1 [Example 336, 2-(4-(4-(2-((2-Chloro-4-(trifluoromethyl)phenyl)amino)-2-oxoethyl)-2-(3,6-dihydro-2H-pyran-4-yl)-5-ethyl-7-oxo-4,7-dihydro-[1,2,4]triazolo[1,5-a]pyrimidin-6-yl)piperazin-1-yl)-N-ethyl-2-oxoacetamide] | 100 to 1000 nM | 100 to 1000 nM
CCc1c(N2CCN(C(=O)C(=O)Nc3ccncn3)CC2)c(=O)n2nc(C3=CCOCC3)nc2n1CC(=O)Nc1ccc(C(F)(F)F)cc1F [Example 340, 2-(4-(2-(3,6-Dihydro-2H-pyran-4-yl)-5-ethyl-4-(2-((2-fluoro-4-(trifluoromethyl)phenyl)amino)-2-oxoethyl)-7-oxo-4,7-dihydro-[1,2,4]triazolo[1,5-a]pyrimidin-6-yl)piperazin-1-yl)-2-oxo-N-(pyrimidin-4-yl)acetamide] | 100 to 1000 nM | 100 to 1000 nM
CCc1c(N2CCN(C(=O)CNC(=O)c3ccccc3F)CC2)c(=O)n2nc(N3CCOCC3)cc2n1CC(=O)Nc1ccc(C(F)(F)F)cc1Cl [Example 344, N-(2-(4-(4-(2-((2-chloro-4-(trifluoromethyl)phenyl)amino)-2-oxoethyl)-5-ethyl-2-morpholino-7-oxo-4,7-dihydropyrazolo[1,5-a]pyrimidin-6-yl)piperazin-1-yl)-2-oxoethyl)-2-fluorobenzamide] | 100 to 1000 nM | 100 to 1000 nM
CCc1c(N2CCN(C(=O)C(F)N3C(=O)c4ccccc4C3=O)CC2)c(=O)n2nc(C3=CCOCC3)nc2n1CC(=O)Nc1ccc(C(F)(F)F)cc1Cl (stereo not shown) [Example 345, N-(2-chloro-4-(trifluoromethyl)phenyl)-2-(2-(3,6-dihydro-2H-pyran-4-yl)-6-(4-(2-(1,3-dioxoisoindolin-2-yl)-2-fluoroacetyl)piperazin-1-yl)-5-ethyl-7-oxo-[1,2,4]triazolo[1,5-a]pyrimidin-4(7H)-yl)acetamide] | 100 to 1000 nM | 100 to 1000 nM
CCc1c(N2CCN(C(=O)CNC(=O)c3nc(C)cs3)CC2)c(=O)n2nc(C3=CCOCC3)nc2n1CC(=O)Nc1ccc(C(F)(F)F)cc1Cl [Example 346, N-(2-(4-(4-(2-((2-Chloro-4-(trifluoromethyl)phenyl)amino)-2-oxoethyl)-2-(3,6-dihydro-2H-pyran-4-yl)-5-ethyl-7-oxo-4,7-dihydro-[1,2,4]triazolo[1,5-a]pyrimidin-6-yl)piperazin-1-yl)-2-oxoethyl)-4-methylthiazole-2-carboxamide] | < 100 nM | < 100 nM
CCc1c(N2CCN(C(=O)C(=O)Nc3nc(C)cs3)CC2)c(=O)n2nc(C3=CCOCC3)nc2n1CC(=O)Nc1ccc(C(F)(F)F)cc1Cl [Example 347, 2-(4-(4-(2-((2-Chloro-4-(trifluoromethyl)phenyl)amino)-2-oxoethyl)-2-(3,6-dihydro-2H-pyran-4-yl)-5-ethyl-7-oxo-4,7-dihydro-[1,2,4]triazolo[1,5-a]pyrimidin-6-yl)piperazin-1-yl)-N-(4-methylthiazol-2-yl)-2-oxoacetamide] | < 100 nM | < 100 nM
CCc1c(N2CCN(C(=O)C(=O)Nc3cc(C)no3)CC2)c(=O)n2nc(C3=CCOCC3)nc2n1CC(=O)Nc1ccc(C(F)(F)F)cc1Cl [Example 348, 2-(4-(4-(2-((2-Chloro-4-(trifluoromethyl)phenyl)amino)-2-oxoethyl)-2-(3,6-dihydro-2H-pyran-4-yl)-5-ethyl-7-oxo-4,7-dihydro-[1,2,4]triazolo[1,5-a]pyrimidin-6-yl)piperazin-1-yl)-N-(3-methylisoxazol-5-yl)-2-oxoacetamide] | < 100 nM | < 100 nM
CCc1c(N2CCN(C(=O)C(=O)Nc3cncs3)CC2)c(=O)n2nc(C3=CCOCC3)nc2n1CC(=O)Nc1ccc(C(F)(F)F)cc1F [Example 349, 2-(4-(2-(3,6-Dihydro-2H-pyran-4-yl)-5-ethyl-4-(2-((2-fluoro-4-(trifluoromethyl)phenyl)amino)-2-oxoethyl)-7-oxo-4,7-dihydro-[1,2,4]triazolo[1,5-a]pyrimidin-6-yl)piperazin-1-yl)-2-oxo-N-(thiazol-5-yl)acetamide] | < 100 nM | < 100 nM
CCc1c(N2CCN(C(=O)C(=O)Nc3nc(C)cs3)CC2)c(=O)n2nc(C3=CCOCC3)nc2n1CC(=O)Nc1ccc(C(F)(F)F)cc1F [Example 350, 2-(4-(2-(3,6-Dihydro-2H-pyran-4-yl)-5-ethyl-4-(2-((2-fluoro-4-(trifluoromethyl)phenyl)amino)-2-oxoethyl)-7-oxo-4,7-dihydro-[1,2,4]triazolo[1,5-a]pyrimidin-6-yl)piperazin-1-yl)-N-(4-methylthiazol-2-yl)-2-oxoacetamide] | < 100 nM | < 100 nM

Second part, the molecule after the results:

IC50 [1] | IC50 [2] | SMILES
< 100 nM | < 100 nM | CCc1c(N2CCN(C(=O)C(=O)NOCc3ccccc3)CC2)c(=O)n2nc(C3=CCOCC3)nc2n1CC(=O)Nc1ccc(C(F)(F)F)cc1Cl [Example 337, N-(Benzyloxy)-2-(4-(4-(2-((2-chloro-4-(trifluoromethyl)phenyl)amino)-2-oxoethyl)-2-(3,6-dihydro-2H-pyran-4-yl)-5-ethyl-7-oxo-4,7-dihydro-[1,2,4]triazolo[1,5-a]pyrimidin-6-yl)piperazin-1-yl)-2-oxoacetamide]
< 100 nM | < 100 nM | CCc1c(N2CCN(C(=O)CNC(=O)CC3CCCO3)CC2)c(=O)n2nc(C3=CCOCC3)nc2n1CC(=O)Nc1ccc(C(F)(F)F)cc1Cl (stereo not shown) [Example 338, N-(2-Chloro-4-(trifluoromethyl)phenyl)-2-(2-(3,6-dihydro-2H-pyran-4-yl)-5-ethyl-7-oxo-6-(4-((2-(tetrahydrofuran-2-yl)acetyl)glycyl)piperazin-1-yl)-[1,2,4]triazolo[1,5-a]pyrimidin-4(7H)-yl)acetamide]
< 100 nM | < 100 nM | CCc1c(N2CCN(C(=O)C(=O)Nc3ccno3)CC2)c(=O)n2nc(C3=CCOCC3)nc2n1CC(=O)Nc1ccc(C(F)(F)F)cc1F [Example 341, 2-(4-(2-(3,6-Dihydro-2H-pyran-4-yl)-5-ethyl-4-(2-((2-fluoro-4-(trifluoromethyl)phenyl)amino)-2-oxoethyl)-7-oxo-4,7-dihydro-[1,2,4]triazolo[1,5-a]pyrimidin-6-yl)piperazin-1-yl)-N-(isoxazol-5-yl)-2-oxoacetamide]
< 100 nM | < 100 nM | CCc1c(N2CCN(C(=O)C(=O)Nc3nncs3)CC2)c(=O)n2nc(C3=CCOCC3)nc2n1CC(=O)Nc1ccc(C(F)(F)F)cc1F [Example 342, 2-(4-(2-(3,6-Dihydro-2H-pyran-4-yl)-5-ethyl-4-(2-((2-fluoro-4-(trifluoromethyl)phenyl)amino)-2-oxoethyl)-7-oxo-4,7-dihydro-[1,2,4]triazolo[1,5-a]pyrimidin-6-yl)piperazin-1-yl)-2-oxo-N-(1,3,4-thiadiazol-2-yl)acetamide]
< 100 nM | < 100 nM | CCc1c(N2CCN(C(=O)CNC(=O)c3ccccc3F)CC2)c(=O)n2nc(C3=CCOCC3)cc2n1CC(=O)Nc1ccc(C(F)(F)F)cc1Cl [Example 343, N-(2-(4-(4-(2-((2-Chloro-4-(trifluoromethyl)phenyl)amino)-2-oxoethyl)-2-(3,6-dihydro-2H-pyran-4-yl)-5-ethyl-7-oxo-4,7-dihydropyrazolo[1,5-a]pyrimidin-6-yl)piperazin-1-yl)-2-oxoethyl)-2-fluorobenzamide]
